The record followed here is paper PMC5106528, “High-Throughput Toxicity and Phenotypic Screening of 3D Human Neural Progenitor Cell Cultures on a Microarray Chip Platform” (Stem Cell Reports, 2016).

Like-named read-outs stand apart in the source and are kept apart here.

Series [1] concerns differentiating ReNcell VM NPCs. In words: cells. The following applies: for IC50: Homo sapiens, ReNcell VM; for Normalized viability at Cmax, Differentiating, Mean ± SEM: human, 72 h. Here is the method: (§1) On-chip cultures of undifferentiated and 10-day differentiated NPCs were stamped with WellChips filled with compound-containing solutions and incubated for 72 hr prior to viability assessment. Vehicle-control normalized viabilities were plotted against compound concentration to generate dose-response plots (Figures 5A and S4). […] The sigmoidal fits for undifferentiated and differentiating NPCs were compared to assess whether differential sensitivities (i.e., different IC50 values) existed for the screened compounds.
(§2) Cell viability was determined in 3D on-chip cultures using a mammalian cell viability assay (LIVE/DEAD, Invitrogen). Prior to the assay, dead cell controls were prepared with 30 min incubation in a WellChip containing either […] 0.5% (w/v) saponin-DMEM/F12 medium in its microwells. […] After staining, PillarChips were rinsed twice with warm DPBS and incubated in DPBS containing 50 mM trehalose (Sigma) for 10 min before rapid drying with nitrogen and storage in the dark. Dried PillarChips were imaged with a Thermo Scientific Cellomics ArrayScan VTI high-content system.
(§3) Undifferentiated and differentiated microchip cultures were prepared as described above. Chemicals were purchased from Sigma or the NIH Small Molecule Repository (Table S2). Concentrated stocks were prepared and diluted into ReNcell Maintenance Medium to prepare the highest screened concentration solution for each compound. Four-fold serial dilutions were made in ReNcell Maintenance Medium, with all solutions having a final concentration of 0.5% or 1% DMSO (v/v) and 20 μg/mL Matrigel. For undifferentiated cultures, the solutions also contained 20 ng/mL of EGF and FGF2. These solutions were printed into WellChips, covered with a gas-permeable membrane, and warmed at 37°C for at least 5 min before stamping with cells. Each WellChip contained six compounds each at six concentrations (n = 10 biological replicates for each concentration) and the appropriate medium containing 0.5% or 1% DMSO for vehicle and dead controls (n = 32 biological replicates per control). PillarChip cultures were incubated with compounds for 72 hr with daily medium exchange to freshly prepared WellChips containing compounds at the appropriate concentrations. […] On-chip toxicity screens were repeated three times for undifferentiated and differentiated cultures. […]

The subject of series [2] is undifferentiated ReNcell VM NPCs. In words: cells. The following applies: 72 h; for IC50: Homo sapiens, ReNcell VM; for Normalized viability at Cmax, Undifferentiated, Mean ± SEM: human. The protocol: as §1, §2, §3
Series [3] shares this test system. Kind of series: On-chip proliferation assay (EdU incorporation), undifferentiated NPCs. The following applies: Homo sapiens, ReNcell VM, undifferentiated, 72 hr exposure, EdU for the final 24 hr, sigmoidal fit. Type of series: cell-based, human. From the text: (§4) Differential toxic effects could be explained, in part, as a consequence of the different proliferative states between the undifferentiated and differentiating NPCs. To this end, the thymidine analog, 5-ethynyl-2′-deoxyuridine (EdU), was used to detect actively proliferating cells on-chip following exposure to compounds or vehicle control to determine dose-response effects on proliferation (Figures 5B and S5), and sigmoidal curves were fit, when appropriate, to obtain IC50 values (Table 1). We found ∼60% of undifferentiated NPCs incorporated EdU over a 24-hr period as opposed to ∼3% of differentiating cultures.
(§5) Undifferentiated and differentiating cultures were screened for toxicity as described previously, except that after the first 48 hr of exposure 10 μM EdU (Click-iT EdU, Invitrogen) was added to the compound-containing medium for the final 24 hr. After 72 hr, on-chip cultures were fixed and processed as described previously for on-chip immunofluorescence; however, instead of antibody staining the cultures were incubated with solution containing Alexa Fluor 488-azide for 30 min as specified in the product manual. Cultures were then rinsed with DPBS for 30 min, incubated in DPBS with Hoechst 33342 (5 μg/mL) for 30 min, and washed in DPBS for 30 min before proceeding with a trehalose wash and drying as described previously. Nuclei were selected using Cellomics software from blue channel images to create a mask, which was used for identification of fluorescently labeled EdU in the green channel for quantification of actively proliferating cells over the 24-hr EdU exposure.

The subject of series [4] is differentiating ReNcell VM NPCs. In words: cells. Type of series: cell-based, human. The following applies: for IC50: Homo sapiens, ReNcell VM, differentiating, 72 hr exposure, EdU for the final 24 hr, sigmoidal fit.
Text: as §4, §5

The mark [5] stands for this setting: read-out: Viability Effects Differentiating IC50.
[6] abbreviates: read-out: Viability Effects Differentiating log(IC50 ± SEM) (converted).
The mark [7] stands for this setting: read-out: Viability Effects Undifferentiated IC50.
Setting [8] is: read-out: Viability Effects Undifferentiated log(IC50 ± SEM) (converted).
The mark [9] stands for this setting: read-out: Proliferation Effects Undifferentiating log(IC50 ± SEM) (converted).
[10] abbreviates: read-out: Proliferation Effects Differentiating log(IC50 ± SEM) (converted).

On to `COc1cccc2c1C(=O)c1c(O)c3c(c(O)c1C2=O)C[C@@](O)(C(=O)CO)C[C@@H]3O[C@H]1C[C@H](N)[C@H](O)[C@H](C)O1` [Doxorubicin], for which the IC50 in series [1] (setting [5]) is 2.7 µM; in series [1] (setting [6]), 2.75 µM; in series [2] (setting [7]), 0.8 µM; in series [2] (setting [8]), 0.794 µM; in series [3] (setting [9]) it was under 0.1 µM; in series [4] (setting [10]), under 0.1 µM. Also, the “Normalized viability at Cmax, Differentiating, Mean ± SEM” value in series [1] was found to be 0.11 ± 0.16. For the same compound, the “Normalized viability at Cmax, Undifferentiated, Mean ± SEM” value in series [2] is 0.05 ± 0.13.

On to `CC1=C(/C=C/C(C)=C/C=C/C(C)=C/C(=O)O)C(C)(C)CCC1` [Retinoic Acid], for which the IC50 in series [1] (setting [5]) is 47 µM; in series [1] (setting [6]), 50.1 µM; in series [2] (setting [7]), 0.74 µM; in series [2] (setting [8]), 0.741 µM; in series [3] (read-out: Proliferation Effects Undifferentiating IC50) it was 15 µM; in series [3] (setting [9]), 14.8 µM. The values for the IC50 in series [4] (read-out: Proliferation Effects Differentiating IC50) and in series [4] (setting [10]) were 22 µM and 22.4 µM, respectively. Also, the “Normalized viability at Cmax, Differentiating, Mean ± SEM” value in series [1] stood at 0.50 ± 0.13. Also, the “Normalized viability at Cmax, Undifferentiated, Mean ± SEM” value in series [2] is 0.55 ± 0.16. Moreover, the “Increase of the average number of proliferating cells” value in series [4] (differentiated cultures, at lower concentrations) is “greater than 3 fold”.
